Entries after “also recorded” stand apart in the source; their conditions may differ. Like-named read-outs stand apart in the source and are kept apart here. Starred links: 1 amine or outer side, 2 acyl side, 3 side chain; linkers in the order of their positions; H or OH if unused. Positions of bridges follow the written chain, without caps; N, C: chain ends. Non-standard residues stand in square brackets, D forms with d. Residues, ends and D or L forms follow the SMILES beside them. Chains are numbered I, II in the order given. Actinocin(9to1) = Cc1c2oc3c(C)ccc(C(=O)[*:1])c3nc-2c(C(=O)[*:2])c(N)c1=O; NMeV = CN[C@H](C(=O)O)C(C)C; Sar = CNCC(=O)O
Legend:
U-937 cells [1] = assay: Annexin V/PI cell viability analysis
[2] = test system: cancer cell lines (HL-60, SK-MEL-5, U-937); assay: Initial screens against cancer cell lines; assay type: cell-based, Human; conditions: cancer cells treated 1 hour, extensive washing to remove compound, read at 24-hour mark
U-937 cells [3] = assay: Protection assays using small molecule inhibitors (protection from Raptinal, AV/PI); assay type: cell-based, Human; conditions: U-937 cells pretreated 2 hours with agent (concentrations of Table 3), then 10 μM Raptinal 2 hours
Procedure: Protection Assays Using Small Molecule Inhibitors.
. The cells were then co-treated with Raptinal at 10 μM for 2 hours prior to analysis by propidium iodide/FITC-annexin V staining and flow cytometry.

U-937 cells [4] = assay type: cell-based, Human; conditions: 20 minute treatment, dihydroethidium, flow cytometry
Procedure: Measurement of Cellular ROS Production.
U-937 cells (1 mL of 5×10^5 cells/mL) in Hank's buffered salt solution (HBSS) containing 5 mM glucose were treated with DMSO, 2 or 10 μM Raptinal, 10 μM thapsigargin, 100 μM etoposide (1% DMSO final) and incubated in the presence of 5 μM dihydroethidium a 37° C., 5% CO2 incubator for 20 minutes. […]. The levels of ethidium were assessed by flow cytometry. Live cells were analyzed based on gating on the forward and side scatter properties and the geometric mean of ethidium staining was determined using the software FCS Express.

[5] = test system: adherent cell lines (HOS, H1993, SK-MEL-5, MIA PaCa-2); assay: Adherent cell lines: cell death by AV/PI staining and immunoblots; assay type: cell-based, Human; conditions: adherent cell lines; 10 μM (FIG. 1G)
[6] = test system: isolated mitochondria (U-937 cells); assay: In vitro cytochrome c release from isolated mitochondria; assay type: biochemical, Human; conditions: respiring and non-respiring conditions, 30 min, Western blot
Procedure: In Vitro Cytochrome c Release from Isolated Mitochondria.
U-937 cells (120×10^6) were washed twice in PBS and resuspended in 800 μL ice-cold lysis buffer (50 mM HEPES, 5 mM DTT, 5 mM PMSF, 25 mM MgCl2, protease cocktail inhibitor, pH 7.5) and the cells were passed through a 26 gauge needle 26 times using a 1 mL syringe until >95% cells were lysed as determined by trypan blue. Isolation buffer (0.25 M sucrose in lysis buffer pH 7.5) was added to the lysed cells (2.4 mL) and mixed by inversion. Debris was removed by centrifugation (500×g. 10 min at 4° C.) and the mitochondria in the supernatant were pelleted by centrifugation (10000×g, 5 min at 4° C.). The mitochondrial pellet was resuspended in washing buffer (2 mL of 50 mM HEPES, 250 mM KCl, 25 mM EDTA, pH 7.5) and incubated on ice for 2 min and centrifuged (12500×g, 5 min). The mitochondrial pellet was resuspended in either non-respiration (300 μL of 50 mM HEPES, 5 mM DTT, 5 mM PMSF, 25 mM MgCl2, protease inhibitor, 250 mM KCl, 25 mM EDTA, pH 7.5) or respiration buffer (300 μL of 50 mM HEPES, […], 5 mM ATP, 0.4 mM ADP, 25 mM sodium succinate, 10 mM potassium phosphate dibasic, pH 7.5). […]

[7] = U-937 cells, 10 μM, time course AV/PI, based on data in FIG. 1F

Molecule | Time to 50% death (U-937 cells [1]; [7]) [h] | protection from Raptinal-induced cell death (U-937 cells [3]) | other results
O=C1C(=O)N(Cc2ccc(Cl)c(Cl)c2)c2ccccc21 [AA2] | >36 |  | 
CC[C@@]1(O)C(=O)OCc2c1cc1n(c2=O)Cc2cc3ccccc3nc2-1 [Camptothecin] | 5 |  | 
N.N.[Cl][Pt][Cl] [Cisplatin, reference compound] | >36 |  | cell death after short treatment and washout [2]: do not have a similar effect
COc1cc2c(c(OC)c1OC)-c1ccc(OC)c(=O)cc1[C@@H](NC(C)=O)CC2 [Colchicine] |  |  | Time to 50% death (U-937 cells [1]): 15 h
O=S(=O)(O)c1cc(N=C=S)ccc1C=Cc1ccc(N=C=S)cc1S(=O)(=O)O [DIDS] |  | significant protection | 
Cc1cc(=O)[nH]c2c1C(=O)c1c(C)cc(=O)n(C)c1C2=O [DNQ] | 6 |  | 
COc1cccc2c1C(=O)c1c(O)c3c(c(O)c1C2=O)C[C@@](O)(C(=O)CO)C[C@@H]3O[C@H]1C[C@H](N)[C@H](O)[C@H](C)O1 [Doxorubicin] | 6 |  | 
CN(NC(=O)CC(=O)NN(C)C(=S)c1ccccc1)C(=S)c1ccccc1 [Elesclomol] | >36 |  | 
COc1cc([C@@H]2c3cc4c(cc3[C@@H](O[C@@H]3O[C@@H]5CO[C@@H](C)O[C@H]5[C@H](O)[C@H]3O)[C@H]3COC(=O)[C@H]23)OCO4)cc(OC)c1O [Etoposide, reference compound] | 5 |  | production of reactive oxygen species (superoxide anion radicals) (U-937 cells [4]): not
N#CC(C#N)=NNc1ccc(OC(F)(F)F)cc1 [FCCP] |  | significant to quantitative protection | 
COC1=C2C[C@@H](C)C[C@H](OC)[C@H](O)[C@@H](C)/C=C(\C)[C@H](OC(N)=O)[C@@H](OC)/C=C\C=C(/C)C(=O)NC(=CC1=O)C2=O [Geldanamycin] | >36 |  | 
Cc1cc2c(C(C)C)c(O)c(O)c(C=O)c2c(O)c1-c1c(C)cc2c(C(C)C)c(O)c(O)c(C=O)c2c1O [Gossypol] | 36 |  | 
CCOC(=O)C1=C(N)Oc2ccc(Br)cc2C1C(C#N)C(=O)OCC (stereo not shown) [HA-141] | >36 |  | 
CO[C@@]12[C@H](COC(N)=O)C3=C(C(=O)C(C)=C(N)C3=O)N1C[C@@H]1N[C@@H]12 [Mitomycin C] | 20 |  | 
C=CCc1cccc(/C=N/NC(=O)CN2CCN(Cc3ccccc3)CC2)c1O [PAC-1] | >36 |  | 
CC(=O)O[C@H]1C(=O)[C@@]2(C)[C@H]([C@H](OC(=O)c3ccccc3)[C@]3(O)C[C@H](OC(=O)[C@H](O)[C@@H](NC(=O)c4ccccc4)c4ccccc4)C(C)=C1C3(C)C)[C@]1(OC(C)=O)CO[C@@H]1C[C@@H]2O [Paclitaxel, reference compound] | 18 |  | cell death after short treatment and washout [2]: do not have a similar effect

Molecule | Time to 50% death (U-937 cells [1]; [7]) [h] | protection from Raptinal-induced cell death (U-937 cells [3]) | other results
CC(C)[C@H](NC(=O)c1ccc2ccccc2n1)C(=O)N[C@@H](CC(=O)O)C(=O)COc1c(F)cccc1F [Q-VD-OPh] |  | quantitatively blocked the loss in cell viability | 
CO[C@H]1C[C@@H]2CC[C@@H](C)[C@@](O)(O2)C(=O)C(=O)N2CCCC[C@H]2C(=O)O[C@H]([C@H](C)C[C@@H]2CC[C@@H](O)[C@H](OC)C2)CC(=O)[C@H](C)/C=C(\C)[C@@H](O)[C@@H](OC)C(=O)[C@H](C)C[C@H](C)/C=C/C=C/C=C/1C [Rapamycin] | >36 |  | 
C=C(C)[C@H]1Cc2c(ccc3c2O[C@@H]2COc4cc(OC)c(OC)cc4[C@@H]2C3=O)O1 [Rotenone] | 20 | significant to quantitative protection | 
CN[C@@H](C)C(=O)N[C@H]1CCCC[C@H]2CC[C@@H](C(=O)N[C@@H](c3ccccc3)c3cn(CCCCc4ccc(CCCCn5cc([C@@H](NC(=O)[C@@H]6CC[C@@H]7CCCC[C@H](NC(=O)[C@H](C)NC)C(=O)N76)c6ccccc6)nn5)cc4)nn3)N2C1=O [SM-164] | >36 |  | 
CN[C@@H]1C[C@H]2O[C@@](C)([C@@H]1OC)n1c3ccccc3c3c4c(c5c6ccccc6n2c5c31)C(=O)NC4 [Staurosporine] | 5 |  | time of apoptotic death [5]: > 24 h; time of apoptotic death (U-937 cells [1]; U-937 cells, 10 μM (FIG. 1F)): 6 to 12 h
c1ccc(CN(CCN(Cc2ccccn2)Cc2ccccn2)Cc2ccccn2)nc1 [TPEN] | 12 |  | 
O=C(CC(=O)C(F)(F)F)c1cccs1 [TTFA] |  | did not confer significant protection | 
C/C=C(/C)C(=O)O[C@H]1C(C)=C2[C@H]([C@@H]1OC(=O)CCCCCCC)[C@@](C)(OC(C)=O)C[C@H](OC(=O)CCC)[C@@]1(O)[C@H]2OC(=O)[C@@]1(C)O [Thapsigargin, reference compound] | 14 |  | production of reactive oxygen species (superoxide anion radicals) (U-937 cells [4]): rapid accumulation of superoxide anion radicals
CC[C@]1(O)C[C@H]2CN(CCc3c([nH]c4ccccc34)[C@@](C(=O)OC)(c3cc4c(cc3OC)N(C=O)[C@H]3[C@@](O)(C(=O)OC)[C@H](OC(C)=O)[C@]5(CC)C=CCN6CC[C@]43[C@@H]65)C2)C1 [Vincristine] | 14 |  | 
Cc1c2oc3c(C)ccc(C(=O)N[C@@H]4C(=O)N[C@H](C(C)C)C(=O)N5CCC[C@H]5C(=O)N(C)CC(=O)N(C)[C@@H](C(C)C)C(=O)O[C@@H]4C)c3nc-2c(C(=O)N[C@@H]2C(=O)N[C@H](C(C)C)C(=O)N3CCC[C@H]3C(=O)N(C)CC(=O)N(C)[C@@H](C(C)C)C(=O)O[C@@H]2C)c(N)c1=O [actinomycin D] (I: T[dV]P[Sar][NMeV] / II: T[dV]P[Sar][NMeV]; ester I:1-I:C, II:1-II:C; linker I:N-II:N via Actinocin(9to1)) |  | did not prevent or delay Raptinal-induced apoptosis | 
COc1[nH]c(=O)c(C(=O)[C@@H](C)C[C@H](C)[C@@H](Cl)CCl)c(O)c1OC [atpenin A5] |  | did not confer significant protection | 
C[C@@H]1C[C@@H]([C@H](O)CC2CC(=O)NC(=O)C2)C(=O)[C@@H](C)C1 [cycloheximide] |  | did not prevent or delay Raptinal-induced apoptosis | 
CC[C@@H]1/C=C/C=C/C[C@H](C)[C@H](O)[C@](C)(O)C(=O)[C@H](C)[C@@H](O)[C@H](C)C(=O)[C@H](C)[C@@H](O)[C@H](C)/C=C/C(=O)O[C@H]2[C@@H](C)[C@@H](CC1)O[C@@]1(CC[C@@H](C)[C@@H](C[C@H](C)O)O1)[C@@H]2C [oligomycin A] |  | significant to quantitative protection | 
Antimycin A | >36 | significant to quantitative protection | 
Tunicamycin | 24 |  | 
Bid: known pro-apoptotic protein; full-length recombinant Bid from R&D Systems (protein, UniProt P55957 1-195, looked up, full-length, known pro-apoptotic protein; full-length recombinant Bid from R&D Systems) MDCEVNNGSSLRDECITNLLVFGFLQSCSDNSFRRELDALGHELPVLAPQWEGYDELQTDGNRSSHSRLGRIEADSESQEDIIRNIARHLAQVGDSMDRSIPPGLVNGLALQLRNTSRSEEDRNRDLATALEQLLQAYPRDMEKEKTMLVLALLLAKKVASHTPSLLRDVFHTTVNFINQNLRTYVRSLARNGMD |  |  | cytochrome c release from isolated mitochondria [6]: able to induce cytochrome c release; also recorded: capable of releasing cytochrome c under both conditions

Source: patent US9682060B2, “Small molecules that induce intrinsic pathway apoptosis” (The Board of Trustees of the University of Illinois, priority 2015, dated 2017)
